Laboratory results: patent US11739098B2 (BRISTOL-MYERS SQUIBB COMPANY, priority 2017, dated 2023)

Columns and labels:
Type in all cases: cell-based
human TLR9 = molecular target: T1, human TLR9 (Homo sapiens, UniProt Q9NR96); test: TLR9 inhibition reporter assay (HEK-Blue cells, SEAP reporter, ODN2006 stimulation); conditions: HEK-Blue cells overexpressing human TLR9, SEAP reporter, ODN2006 5 nM
T1 construct: host or cells: HEK-Blue cells (HEK293-derived reporter line)
T1 sequence (Q9NR96 26-1032): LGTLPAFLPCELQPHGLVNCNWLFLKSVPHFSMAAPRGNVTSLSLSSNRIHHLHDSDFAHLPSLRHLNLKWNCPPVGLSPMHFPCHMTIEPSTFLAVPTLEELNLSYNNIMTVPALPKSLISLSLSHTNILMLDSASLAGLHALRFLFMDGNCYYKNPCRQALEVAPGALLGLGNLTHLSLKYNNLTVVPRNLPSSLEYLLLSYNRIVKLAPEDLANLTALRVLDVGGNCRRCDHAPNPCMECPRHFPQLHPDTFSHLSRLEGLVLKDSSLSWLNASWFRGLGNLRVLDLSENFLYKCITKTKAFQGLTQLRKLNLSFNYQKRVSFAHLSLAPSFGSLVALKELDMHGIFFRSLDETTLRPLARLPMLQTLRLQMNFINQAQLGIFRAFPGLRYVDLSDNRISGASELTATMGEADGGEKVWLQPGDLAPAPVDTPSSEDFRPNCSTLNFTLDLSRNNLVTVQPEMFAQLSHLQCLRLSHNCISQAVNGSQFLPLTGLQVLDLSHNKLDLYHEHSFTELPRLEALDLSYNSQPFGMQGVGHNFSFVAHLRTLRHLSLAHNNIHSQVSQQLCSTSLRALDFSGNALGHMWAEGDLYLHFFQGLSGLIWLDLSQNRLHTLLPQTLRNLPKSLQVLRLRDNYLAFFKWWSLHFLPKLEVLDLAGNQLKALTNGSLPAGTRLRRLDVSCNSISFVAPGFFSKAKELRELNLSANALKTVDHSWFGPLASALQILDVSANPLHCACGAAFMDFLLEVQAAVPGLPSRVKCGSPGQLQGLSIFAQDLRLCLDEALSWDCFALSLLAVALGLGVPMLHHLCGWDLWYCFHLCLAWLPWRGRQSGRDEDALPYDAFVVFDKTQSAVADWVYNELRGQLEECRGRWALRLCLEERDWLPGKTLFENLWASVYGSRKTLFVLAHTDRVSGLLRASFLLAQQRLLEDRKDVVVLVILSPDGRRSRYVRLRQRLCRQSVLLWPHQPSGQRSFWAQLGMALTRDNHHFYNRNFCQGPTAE
Summary of the method: (§1)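 Cells seeded per well (15000 TLR7, 20,000 TLR8, 25,000 TLR9); compound added over 0.05 nM–50 μM for 30 min at room temperature; agonist added (TLR7 gardiquimod 7.5 μM, TLR8 R848 15.9 μM, TLR9 ODN2006 5 nM); 22 h at 37 °C; SEAP measured; percent inhibition calculated.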

human TLR7 = molecular target: T2, human TLR7 (Homo sapiens, UniProt Q9NYK1); test: TLR7 inhibition reporter assay (HEK-Blue cells, SEAP reporter, gardiquimod stimulation); conditions: HEK-Blue cells overexpressing human TLR7, SEAP reporter, gardiquimod 7.5 μM
T2 construct: host or cells: HEK-Blue cells (HEK293-derived reporter line)
T2 sequence (Q9NYK1 27-1049): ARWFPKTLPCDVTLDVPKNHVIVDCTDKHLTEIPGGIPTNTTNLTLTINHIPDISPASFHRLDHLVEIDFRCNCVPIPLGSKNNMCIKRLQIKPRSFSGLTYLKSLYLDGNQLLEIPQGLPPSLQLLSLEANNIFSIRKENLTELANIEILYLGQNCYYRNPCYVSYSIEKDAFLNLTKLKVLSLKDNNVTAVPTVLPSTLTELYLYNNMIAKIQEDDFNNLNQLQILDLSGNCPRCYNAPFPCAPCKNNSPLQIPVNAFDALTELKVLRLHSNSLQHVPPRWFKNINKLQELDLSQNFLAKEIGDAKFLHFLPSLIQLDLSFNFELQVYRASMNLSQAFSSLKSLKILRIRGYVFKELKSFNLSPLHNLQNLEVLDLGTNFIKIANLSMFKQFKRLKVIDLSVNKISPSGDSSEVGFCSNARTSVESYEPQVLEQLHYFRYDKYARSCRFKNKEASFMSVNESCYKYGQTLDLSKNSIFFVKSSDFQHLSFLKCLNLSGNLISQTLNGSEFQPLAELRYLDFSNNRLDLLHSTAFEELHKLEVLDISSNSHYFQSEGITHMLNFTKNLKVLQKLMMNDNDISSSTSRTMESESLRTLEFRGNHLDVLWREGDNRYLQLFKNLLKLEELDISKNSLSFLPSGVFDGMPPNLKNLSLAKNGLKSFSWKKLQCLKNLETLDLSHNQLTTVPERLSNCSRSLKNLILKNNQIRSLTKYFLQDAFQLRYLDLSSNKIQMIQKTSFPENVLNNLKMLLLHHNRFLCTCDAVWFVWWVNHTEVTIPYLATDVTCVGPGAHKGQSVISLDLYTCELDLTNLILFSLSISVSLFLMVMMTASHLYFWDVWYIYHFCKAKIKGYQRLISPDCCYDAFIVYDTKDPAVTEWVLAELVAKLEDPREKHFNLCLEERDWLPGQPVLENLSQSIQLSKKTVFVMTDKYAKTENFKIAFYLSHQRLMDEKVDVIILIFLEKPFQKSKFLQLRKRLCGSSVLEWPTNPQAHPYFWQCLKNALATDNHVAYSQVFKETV
Summary of the method: as §1

human TLR8 = molecular target: T3, human TLR8 (Homo sapiens, UniProt Q9NR97); test: TLR8 inhibition reporter assay (HEK-Blue cells, SEAP reporter, R848 stimulation); conditions: HEK-Blue cells overexpressing human TLR8, SEAP reporter, R848 15.9 μM
T3 construct: host or cells: HEK-Blue cells (HEK293-derived reporter line)
T3 sequence (Q9NR97 27-1041): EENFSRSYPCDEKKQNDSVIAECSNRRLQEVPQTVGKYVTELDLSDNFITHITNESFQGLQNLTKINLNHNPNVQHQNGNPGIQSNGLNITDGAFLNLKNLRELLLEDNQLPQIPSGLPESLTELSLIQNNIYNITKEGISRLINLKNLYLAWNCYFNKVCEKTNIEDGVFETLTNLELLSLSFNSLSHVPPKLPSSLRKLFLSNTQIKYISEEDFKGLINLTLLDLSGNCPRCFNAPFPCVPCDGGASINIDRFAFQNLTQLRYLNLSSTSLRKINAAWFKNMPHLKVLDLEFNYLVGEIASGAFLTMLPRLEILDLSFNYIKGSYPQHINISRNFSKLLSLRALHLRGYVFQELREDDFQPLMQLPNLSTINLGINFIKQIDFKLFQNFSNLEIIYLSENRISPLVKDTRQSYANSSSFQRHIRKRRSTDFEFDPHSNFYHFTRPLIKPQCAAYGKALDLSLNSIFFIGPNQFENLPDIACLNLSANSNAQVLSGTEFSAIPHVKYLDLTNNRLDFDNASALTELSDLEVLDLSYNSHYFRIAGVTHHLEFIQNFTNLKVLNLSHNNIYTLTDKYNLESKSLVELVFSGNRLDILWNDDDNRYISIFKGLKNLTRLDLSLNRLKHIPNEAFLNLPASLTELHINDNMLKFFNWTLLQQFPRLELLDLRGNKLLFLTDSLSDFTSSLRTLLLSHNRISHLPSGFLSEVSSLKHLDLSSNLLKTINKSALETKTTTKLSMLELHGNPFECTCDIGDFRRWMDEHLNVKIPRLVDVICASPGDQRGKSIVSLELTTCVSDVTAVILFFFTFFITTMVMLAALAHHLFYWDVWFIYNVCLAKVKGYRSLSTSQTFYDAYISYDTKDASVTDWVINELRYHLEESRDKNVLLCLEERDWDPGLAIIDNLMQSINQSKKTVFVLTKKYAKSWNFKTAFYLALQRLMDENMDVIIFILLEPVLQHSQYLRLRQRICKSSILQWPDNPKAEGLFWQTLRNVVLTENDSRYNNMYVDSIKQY
Summary of the method: as §1

Row | IC50 (human TLR9) | IC50 (human TLR7) | IC50 (human TLR8) | SMILES
1 | 1000 to 50000 nM | < 100 nM | < 100 nM | Cc1ccnc2[nH]cc(-c3[nH]c4ccc(C5CCN(C6CCOCC6)CC5)cc4c3C(C)C)c12 [Example 690, 3-(3-isopropyl-5-(1-(tetrahydro-2H-pyran-4-yl)piperidin-4-yl)-1H-indol-2-yl)-4-methyl-1H-pyrrolo[2,3-b]pyridine]
2 | 100 to 1000 nM | 100 to 1000 nM | 100 to 1000 nM | Cc1cc(-c2[nH]c3ccc(C4CCN(C(=O)CN(C)C)CC4)cc3c2C(C)C)cc2nccn12 [Example 500, 2-(dimethylamino)-1-(4-(3-isopropyl-2-(5-methylimidazo[1,2-a]pyridin-7-yl)-1H-indol-5-yl)piperidin-1-yl)ethan-1-one]
3 | 1000 to 50000 nM | 1000 to 50000 nM | > 3130 nM | CC(C)c1c(-c2cnc3ccnn3c2)[nH]c2ccc(C3CCN(C(C)C)CC3)cc12 [Example 944, 6-(3-isopropyl-5-(1-isopropylpiperidin-4-yl)-1H-indol-2-yl)pyrazolo[1,5-a]pyrimidine]
4 | 100 to 1000 nM | 100 to 1000 nM | < 100 nM | CCc1c(-c2ccnc3[nH]ccc23)[nH]c2ccc(C3CCN(C4CCN(CC(C)C)CC4)CC3)cc12 [Example 849, 4-(3-ethyl-5-(1′-isobutyl-[1,4′-bipiperidin]-4-yl)-1H-indol-2-yl)-1H-pyrrolo[2,3-b]pyridine]
5 | 100 to 1000 nM | < 100 nM | < 100 nM | CCc1c(-c2ccnc3[nH]ccc23)[nH]c2ccc(C3CCN(C4CCN(CC)CC4)CC3)cc12 [Example 837, 4-(3-ethyl-5-(1′-ethyl-[1,4′-bipiperidin]-4-yl)-1H-indol-2-yl)-1H-pyrrolo[2,3-b]pyridine]
6 | 1000 to 50000 nM | < 100 nM | < 100 nM | Cc1cc(-c2[nH]c3ccc(C4CCN(CC(=O)N(C)C)CC4)cc3c2C(C)C)cn2cc(C(=O)N(C)CCO)nc12 [Example 344, 6-(5-(1-(2-(dimethylamino)-2-oxoethyl)piperidin-4-yl)-3-isopropyl-1H-indol-2-yl)-N-(2-hydroxyethyl)-N,8-dimethylimidazo[1,2-a]pyridine-2-carboxamide]
7 | 1000 to 50000 nM | < 100 nM | 100 to 1000 nM | Cc1nc2ccc(-c3[nH]c4ccc(C5CCNCC5)cc4c3C(C)C)cc2o1 [Example 6, 6-(3-isopropyl-5-(piperidin-4-yl)-1H-indol-2-yl)-2-methylbenzo[d]oxazole]
8 | 1000 to 50000 nM | 100 to 1000 nM | > 3130 nM | CC(C)c1c(-c2nc3c(N)ncnc3[nH]2)[nH]c2ccc(C3CCNCC3)cc12 [Example 8, 8-(3-isopropyl-5-(piperidin-4-yl)-1H-indol-2-yl)-9H-purin-6-amine]
9 | 100 to 1000 nM | < 100 nM | < 100 nM | Cc1cc(-c2[nH]c3ccc(C4CCN(Cc5ccn(C)n5)CC4)cc3c2C(C)C)cc2cnnn12 [Example 891, 5-(3-isopropyl-5-(1-((1-methyl-1H-pyrazol-3-yl)methyl)piperidin-4-yl)-1H-indol-2-yl)-7-methyl-[1,2,3]triazolo[1,5-a]pyridine]
10 | 1000 to 50000 nM | 100 to 1000 nM | < 100 nM | CCc1c(-c2ccnc3[nH]ncc23)[nH]c2ccc(C3CCN(Cc4nc(C)oc4C)CC3)cc12 [Example 898, 4-((4-(3-ethyl-2-(1H-pyrazolo[3,4-b]pyridin-4-yl)-1H-indol-5-yl)piperidin-1-yl)methyl)-2,5-dimethyloxazole]
11 | 100 to 1000 nM | 100 to 1000 nM | 100 to 1000 nM | CC(C)c1c(-c2cnc3[nH]ccc3c2)[nH]c2ccc(C3CCN(C4CCN(C)CC4)CC3)cc12 [Example 802, 5-(3-isopropyl-5-(1′-methyl-[1,4′-bipiperidin]-4-yl)-1H-indol-2-yl)-1H-pyrrolo[2,3-b]pyridine]
12 | 1000 to 50000 nM | < 100 nM | < 100 nM | COc1cc(-c2[nH]c3ccc(C4CCN(C(=O)CN(C)C)CC4)cc3c2C(C)C)cc2ncnn12 [Example 532, 2-(dimethylamino)-1-(4-(3-isopropyl-2-(5-methoxy-[1,2,4]triazolo[1,5-a]pyridin-7-yl)-1H-indol-5-yl)piperidin-1-yl)ethan-1-one]
13 | 100 to 1000 nM | < 100 nM | < 100 nM | Cc1cc2nccn2cc1-c1[nH]c2ccc(C3CCNCC3)cc2c1C(C)C [Example 110, 6-(3-isopropyl-5-(piperidin-4-yl)-1H-indol-2-yl)-7-methylimidazo[1,2-a]pyridine]
14 | 100 to 1000 nM | < 100 nM | < 100 nM | CC(C)c1c(-c2cnc3cn[nH]c3c2)[nH]c2ccc(C3CCNCC3)cc12 [Example 63, 6-(3-isopropyl-5-(piperidin-4-yl)-1H-indol-2-yl)-1H-pyrazolo[4,3-b]pyridine]
15 | 1000 to 50000 nM | < 100 nM | < 100 nM | Cc1cc(-c2[nH]c3ccc(C4CCN(CC(N)=O)CC4)cc3c2C(C)C)cc2cnnn12 [Example 321, 2-(4-(3-isopropyl-2-(7-methyl-[1,2,3]triazolo[1,5-a]pyridin-5-yl)-1H-indol-5-yl)piperidin-1-yl)acetamide]
